Structures are written as SMILES.

The target of assay [1] is Casein kinase I isoform gamma-1 (Homo sapiens) (UniProt Q9HCP0). As to the kind of experiment: Selectivity interaction (Upstate Kinase Profiler service (Millipore)) EUB0000056c CSNK1G1. The following applies: at 1 µM.
Assay [2] concerns Epidermal growth factor receptor (Homo sapiens), P00533 [UNDEFINED MUTATION]. The following applies: at 10 µM.
Assay [3] has as its target T1, Ephrin type-B receptor 3 (Homo sapiens) (UniProt P54753).
T1 sequence (whole entry): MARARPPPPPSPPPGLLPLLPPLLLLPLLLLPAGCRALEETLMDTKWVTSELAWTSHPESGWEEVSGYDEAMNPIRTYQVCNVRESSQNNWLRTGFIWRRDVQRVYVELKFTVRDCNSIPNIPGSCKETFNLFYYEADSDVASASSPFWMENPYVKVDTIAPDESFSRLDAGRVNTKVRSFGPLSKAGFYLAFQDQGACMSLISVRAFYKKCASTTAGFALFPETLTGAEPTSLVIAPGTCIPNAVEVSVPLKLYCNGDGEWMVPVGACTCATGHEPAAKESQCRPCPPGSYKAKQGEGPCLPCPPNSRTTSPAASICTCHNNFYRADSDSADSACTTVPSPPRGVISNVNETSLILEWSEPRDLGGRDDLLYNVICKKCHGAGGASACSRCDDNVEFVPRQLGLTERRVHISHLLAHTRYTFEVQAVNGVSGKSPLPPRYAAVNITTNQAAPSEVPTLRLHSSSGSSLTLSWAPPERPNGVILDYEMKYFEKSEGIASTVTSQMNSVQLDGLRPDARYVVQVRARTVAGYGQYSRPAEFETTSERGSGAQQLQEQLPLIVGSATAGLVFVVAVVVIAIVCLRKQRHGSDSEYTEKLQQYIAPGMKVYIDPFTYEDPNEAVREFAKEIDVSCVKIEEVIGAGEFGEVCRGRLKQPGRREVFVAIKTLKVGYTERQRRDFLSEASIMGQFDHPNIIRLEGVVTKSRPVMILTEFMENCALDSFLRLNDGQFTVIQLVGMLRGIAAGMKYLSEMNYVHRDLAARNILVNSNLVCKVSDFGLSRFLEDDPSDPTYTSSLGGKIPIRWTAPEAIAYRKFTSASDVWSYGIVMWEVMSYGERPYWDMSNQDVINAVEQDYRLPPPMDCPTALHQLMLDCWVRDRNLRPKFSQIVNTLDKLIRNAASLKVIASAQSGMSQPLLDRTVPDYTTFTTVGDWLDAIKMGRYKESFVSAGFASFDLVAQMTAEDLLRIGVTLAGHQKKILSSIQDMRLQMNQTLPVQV
As to the kind of experiment: Selectivity interaction (Ambit KINOMEscan and KiNATiv profiling in Jurkat cells) EUB0000090b EPHB3. It is filed as cell-based. The note with it: at 1 µM.

For assay [4], the target named is STE20-like serine/threonine-protein kinase (Homo sapiens, UniProt Q9H2G2). The note with it: at 10 µM.
Assay [5] has as its system eIF-2-alpha kinase GCN2 (Homo sapiens), Q9P2K8 [S808G]. As to the kind of experiment: Selectivity interaction (KinomeScan (DiscoverX)) EUB0000092b EIF2AK4. The note with it: at 10 µM.
Assay [6] deals with T2, Dual specificity mitogen-activated protein kinase kinase 7 (Homo sapiens) (UniProt O14733).
T2 sequence (whole entry): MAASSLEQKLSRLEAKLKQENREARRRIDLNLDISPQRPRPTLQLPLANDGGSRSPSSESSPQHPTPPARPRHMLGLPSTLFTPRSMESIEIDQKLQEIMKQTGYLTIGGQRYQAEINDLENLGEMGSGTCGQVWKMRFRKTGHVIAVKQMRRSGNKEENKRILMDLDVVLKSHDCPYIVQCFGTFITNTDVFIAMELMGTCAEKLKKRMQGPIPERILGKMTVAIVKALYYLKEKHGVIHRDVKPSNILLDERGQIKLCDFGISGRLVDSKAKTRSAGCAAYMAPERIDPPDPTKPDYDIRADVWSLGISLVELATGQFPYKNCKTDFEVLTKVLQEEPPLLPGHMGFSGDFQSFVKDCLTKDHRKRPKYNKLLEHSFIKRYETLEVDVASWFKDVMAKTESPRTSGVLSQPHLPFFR
As to the kind of experiment: Selectivity interaction (KinomeScan (DiscoverX)) EUB0000695a MAP2K7. The following applies: at 100 nM.

Assay [7] deals with Ribosomal protein S6 kinase alpha-1 (Homo sapiens, UniProt Q15418). As to the kind of experiment: Selectivity interaction (KinomeScan (DiscoverX)) EUB0000045b RPS6KA1. The following applies: at 10 µM.
Chain of Ribosomal protein S6 kinase alpha-1 (Q15418 whole entry): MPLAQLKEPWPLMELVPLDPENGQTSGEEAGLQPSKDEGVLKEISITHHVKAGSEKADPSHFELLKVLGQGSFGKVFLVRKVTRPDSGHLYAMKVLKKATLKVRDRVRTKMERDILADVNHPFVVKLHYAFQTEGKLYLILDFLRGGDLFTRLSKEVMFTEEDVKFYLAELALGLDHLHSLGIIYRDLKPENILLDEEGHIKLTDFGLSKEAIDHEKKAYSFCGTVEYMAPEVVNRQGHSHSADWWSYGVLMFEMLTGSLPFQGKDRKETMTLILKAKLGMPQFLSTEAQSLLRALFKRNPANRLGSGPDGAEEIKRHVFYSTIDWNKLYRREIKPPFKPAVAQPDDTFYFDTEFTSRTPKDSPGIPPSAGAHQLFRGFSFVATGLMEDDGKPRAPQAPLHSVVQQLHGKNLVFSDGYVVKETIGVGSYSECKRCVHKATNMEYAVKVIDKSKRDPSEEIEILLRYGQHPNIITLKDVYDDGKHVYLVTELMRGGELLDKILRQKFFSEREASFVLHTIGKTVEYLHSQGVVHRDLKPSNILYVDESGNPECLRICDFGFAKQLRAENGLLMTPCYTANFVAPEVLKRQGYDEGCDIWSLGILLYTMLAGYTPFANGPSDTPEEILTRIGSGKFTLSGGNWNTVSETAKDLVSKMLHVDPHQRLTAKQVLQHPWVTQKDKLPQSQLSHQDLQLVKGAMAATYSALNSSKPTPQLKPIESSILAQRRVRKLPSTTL
Assay [8] addresses Platelet-derived growth factor receptor beta (Homo sapiens, UniProt P09619). As to the kind of experiment: Selectivity interaction (KinomeScan (DiscoverX)) EUB0000045b PDGFRB.
Assay [9] concerns the target Receptor tyrosine-protein kinase erbB-4 (Homo sapiens, UniProt Q15303). Kind of assay: Selectivity interaction (Kinase panel (Z-LYTE Assay)) EUB0001632a ERBB4. The following applies: at 10 µM.
In assay [10] the target is T3, Interleukin-1 receptor-associated kinase 3 (Homo sapiens) (UniProt Q9Y616).
T3 sequence (whole entry): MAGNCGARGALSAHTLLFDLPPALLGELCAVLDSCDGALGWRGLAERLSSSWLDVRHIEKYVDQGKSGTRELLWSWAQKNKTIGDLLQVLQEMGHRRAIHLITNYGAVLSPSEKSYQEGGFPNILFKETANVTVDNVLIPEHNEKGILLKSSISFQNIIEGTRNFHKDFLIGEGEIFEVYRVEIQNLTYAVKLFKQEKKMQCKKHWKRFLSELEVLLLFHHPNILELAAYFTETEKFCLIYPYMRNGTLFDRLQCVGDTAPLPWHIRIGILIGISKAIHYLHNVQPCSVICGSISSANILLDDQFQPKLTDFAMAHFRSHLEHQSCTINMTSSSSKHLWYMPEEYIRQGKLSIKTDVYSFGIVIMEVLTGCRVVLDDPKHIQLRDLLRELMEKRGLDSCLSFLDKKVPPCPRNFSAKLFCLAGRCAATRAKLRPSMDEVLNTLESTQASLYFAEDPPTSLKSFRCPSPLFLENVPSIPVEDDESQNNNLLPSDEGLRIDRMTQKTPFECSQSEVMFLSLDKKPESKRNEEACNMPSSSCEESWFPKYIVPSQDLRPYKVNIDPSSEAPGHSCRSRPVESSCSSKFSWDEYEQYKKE
As to the kind of experiment: Selectivity interaction (KinomeScan (DiscoverX)) EUB0000607a IRAK3. The following applies: at 10 µM.

Assay [11] addresses G protein-coupled receptor kinase 5 (Homo sapiens, UniProt P34947). As to the kind of experiment: Selectivity interaction (Kinase panel (Invitrogen)) EUB0000639a GRK5. The following applies: at 200 nM.
The target of assay [12] is Serine/threonine-protein kinase 38-like (Homo sapiens) (UniProt Q9Y2H1). As to the kind of experiment: Selectivity interaction (ActivX KiNativ screen (kinase selectivity in THP-1 cell lysates)) EUB0000639a STK38L. The following applies: lysate, at 0.01 µM. It is filed as subcellular.
The target of assay [13] is Dual specificity protein kinase CLK1 (Homo sapiens, UniProt P49759). Kind of assay: Selectivity interaction (KinomeScan (DiscoverX)) EUB0000229b CLK1. The note with it: at 10 µM.
Chain of Dual specificity protein kinase CLK1 (P49759 whole entry, looked up): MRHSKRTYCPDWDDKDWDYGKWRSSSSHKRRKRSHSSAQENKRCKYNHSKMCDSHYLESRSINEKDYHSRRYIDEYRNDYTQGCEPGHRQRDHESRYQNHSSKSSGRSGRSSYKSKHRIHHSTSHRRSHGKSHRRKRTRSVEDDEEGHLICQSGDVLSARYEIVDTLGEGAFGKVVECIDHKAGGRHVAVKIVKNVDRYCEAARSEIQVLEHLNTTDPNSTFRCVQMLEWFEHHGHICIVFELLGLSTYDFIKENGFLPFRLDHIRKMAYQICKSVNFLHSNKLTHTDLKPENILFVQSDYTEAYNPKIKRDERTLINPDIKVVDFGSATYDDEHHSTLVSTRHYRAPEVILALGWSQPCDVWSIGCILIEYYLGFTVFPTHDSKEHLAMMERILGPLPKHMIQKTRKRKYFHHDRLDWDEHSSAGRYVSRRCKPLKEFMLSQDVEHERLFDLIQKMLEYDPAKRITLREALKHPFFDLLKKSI

Chain of Platelet-derived growth factor receptor beta (P09619 whole entry): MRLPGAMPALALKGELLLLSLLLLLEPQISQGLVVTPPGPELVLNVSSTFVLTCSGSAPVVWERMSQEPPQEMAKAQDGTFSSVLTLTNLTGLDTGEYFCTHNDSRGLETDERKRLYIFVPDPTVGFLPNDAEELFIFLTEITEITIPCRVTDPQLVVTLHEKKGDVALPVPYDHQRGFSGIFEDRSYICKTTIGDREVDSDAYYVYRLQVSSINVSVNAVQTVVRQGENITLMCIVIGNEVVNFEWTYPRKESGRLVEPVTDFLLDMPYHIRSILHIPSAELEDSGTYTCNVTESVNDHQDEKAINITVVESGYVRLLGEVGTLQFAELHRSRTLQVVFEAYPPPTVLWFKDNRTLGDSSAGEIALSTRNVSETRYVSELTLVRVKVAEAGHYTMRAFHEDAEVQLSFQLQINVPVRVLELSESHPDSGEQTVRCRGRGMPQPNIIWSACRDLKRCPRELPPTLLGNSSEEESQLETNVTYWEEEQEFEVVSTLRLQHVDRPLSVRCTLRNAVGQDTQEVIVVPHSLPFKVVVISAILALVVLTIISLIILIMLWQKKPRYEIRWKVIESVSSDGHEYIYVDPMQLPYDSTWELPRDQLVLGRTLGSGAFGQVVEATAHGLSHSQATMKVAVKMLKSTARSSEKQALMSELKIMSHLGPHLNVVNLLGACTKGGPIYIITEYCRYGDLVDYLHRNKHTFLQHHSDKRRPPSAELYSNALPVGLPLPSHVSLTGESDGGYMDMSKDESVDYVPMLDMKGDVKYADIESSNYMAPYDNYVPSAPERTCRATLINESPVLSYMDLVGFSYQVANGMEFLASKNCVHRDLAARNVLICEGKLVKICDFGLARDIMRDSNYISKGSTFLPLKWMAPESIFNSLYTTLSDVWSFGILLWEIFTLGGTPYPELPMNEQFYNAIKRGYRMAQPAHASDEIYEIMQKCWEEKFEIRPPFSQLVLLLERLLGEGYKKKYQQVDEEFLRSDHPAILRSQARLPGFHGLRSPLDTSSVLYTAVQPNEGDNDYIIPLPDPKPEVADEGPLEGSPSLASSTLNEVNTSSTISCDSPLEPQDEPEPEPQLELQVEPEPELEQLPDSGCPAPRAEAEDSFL
Chain of G protein-coupled receptor kinase 5 (P34947 whole entry, looked up): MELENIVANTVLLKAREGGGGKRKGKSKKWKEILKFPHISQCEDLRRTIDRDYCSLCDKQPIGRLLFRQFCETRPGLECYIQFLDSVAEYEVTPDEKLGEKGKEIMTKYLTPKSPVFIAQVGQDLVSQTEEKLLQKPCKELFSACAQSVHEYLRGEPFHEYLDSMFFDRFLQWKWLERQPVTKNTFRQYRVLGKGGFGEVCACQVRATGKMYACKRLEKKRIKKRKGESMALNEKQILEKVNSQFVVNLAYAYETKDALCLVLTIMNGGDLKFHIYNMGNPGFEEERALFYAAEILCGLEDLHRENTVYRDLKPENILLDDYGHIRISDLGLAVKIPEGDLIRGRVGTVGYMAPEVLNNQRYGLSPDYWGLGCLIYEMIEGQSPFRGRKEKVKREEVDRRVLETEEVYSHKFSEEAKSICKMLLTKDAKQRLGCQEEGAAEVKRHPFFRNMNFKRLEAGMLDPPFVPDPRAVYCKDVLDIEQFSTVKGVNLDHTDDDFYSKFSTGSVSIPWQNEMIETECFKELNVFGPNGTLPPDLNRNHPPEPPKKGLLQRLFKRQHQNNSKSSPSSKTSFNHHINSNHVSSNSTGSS
Chain of eIF-2-alpha kinase GCN2 (Homo sapiens), Q9P2K8 [S808G] (Q9P2K8 whole entry S808G): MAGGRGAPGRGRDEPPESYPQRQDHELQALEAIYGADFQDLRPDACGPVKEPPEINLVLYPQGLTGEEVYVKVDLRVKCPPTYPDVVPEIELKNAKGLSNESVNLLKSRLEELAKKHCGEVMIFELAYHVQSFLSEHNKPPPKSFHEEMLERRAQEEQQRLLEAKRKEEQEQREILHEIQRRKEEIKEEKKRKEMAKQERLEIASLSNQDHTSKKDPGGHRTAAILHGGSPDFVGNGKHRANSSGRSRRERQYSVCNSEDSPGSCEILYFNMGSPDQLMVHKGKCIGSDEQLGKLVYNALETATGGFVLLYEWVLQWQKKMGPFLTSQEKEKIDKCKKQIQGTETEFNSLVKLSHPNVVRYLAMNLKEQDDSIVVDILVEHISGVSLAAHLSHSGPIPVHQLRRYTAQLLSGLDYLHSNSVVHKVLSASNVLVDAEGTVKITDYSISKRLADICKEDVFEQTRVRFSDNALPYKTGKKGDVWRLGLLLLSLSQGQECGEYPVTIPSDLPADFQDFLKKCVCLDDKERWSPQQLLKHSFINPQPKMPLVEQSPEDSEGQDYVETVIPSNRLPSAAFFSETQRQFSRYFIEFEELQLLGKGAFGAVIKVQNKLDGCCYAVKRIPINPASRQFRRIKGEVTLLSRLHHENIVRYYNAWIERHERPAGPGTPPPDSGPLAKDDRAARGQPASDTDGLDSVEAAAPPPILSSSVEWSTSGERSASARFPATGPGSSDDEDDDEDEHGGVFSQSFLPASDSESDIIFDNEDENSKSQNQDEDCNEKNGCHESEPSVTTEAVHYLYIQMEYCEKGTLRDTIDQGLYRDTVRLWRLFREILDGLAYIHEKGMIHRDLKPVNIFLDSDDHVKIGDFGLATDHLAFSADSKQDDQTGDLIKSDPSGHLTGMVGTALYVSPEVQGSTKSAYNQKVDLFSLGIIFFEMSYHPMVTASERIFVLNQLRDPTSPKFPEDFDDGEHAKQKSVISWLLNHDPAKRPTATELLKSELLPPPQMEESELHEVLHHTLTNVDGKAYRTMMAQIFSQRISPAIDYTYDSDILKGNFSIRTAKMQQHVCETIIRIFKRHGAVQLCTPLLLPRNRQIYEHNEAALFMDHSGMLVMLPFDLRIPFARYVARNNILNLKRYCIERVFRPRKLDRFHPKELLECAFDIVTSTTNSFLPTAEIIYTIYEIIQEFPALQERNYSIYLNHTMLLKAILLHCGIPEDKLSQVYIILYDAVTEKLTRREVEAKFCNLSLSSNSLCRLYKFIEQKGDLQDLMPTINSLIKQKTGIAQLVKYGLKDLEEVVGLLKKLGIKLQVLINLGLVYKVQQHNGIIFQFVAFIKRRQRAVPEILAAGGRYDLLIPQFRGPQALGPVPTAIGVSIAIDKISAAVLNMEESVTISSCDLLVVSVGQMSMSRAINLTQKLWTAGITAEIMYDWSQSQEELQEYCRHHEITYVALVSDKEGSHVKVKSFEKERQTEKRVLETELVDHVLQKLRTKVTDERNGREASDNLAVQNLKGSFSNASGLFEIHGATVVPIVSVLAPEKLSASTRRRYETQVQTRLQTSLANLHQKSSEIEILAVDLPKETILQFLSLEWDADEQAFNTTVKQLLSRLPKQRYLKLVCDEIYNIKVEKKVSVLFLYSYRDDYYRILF
Chain of Casein kinase I isoform gamma-1 (Homo sapiens) (Q9HCP0 whole entry, looked up, canonical isoform): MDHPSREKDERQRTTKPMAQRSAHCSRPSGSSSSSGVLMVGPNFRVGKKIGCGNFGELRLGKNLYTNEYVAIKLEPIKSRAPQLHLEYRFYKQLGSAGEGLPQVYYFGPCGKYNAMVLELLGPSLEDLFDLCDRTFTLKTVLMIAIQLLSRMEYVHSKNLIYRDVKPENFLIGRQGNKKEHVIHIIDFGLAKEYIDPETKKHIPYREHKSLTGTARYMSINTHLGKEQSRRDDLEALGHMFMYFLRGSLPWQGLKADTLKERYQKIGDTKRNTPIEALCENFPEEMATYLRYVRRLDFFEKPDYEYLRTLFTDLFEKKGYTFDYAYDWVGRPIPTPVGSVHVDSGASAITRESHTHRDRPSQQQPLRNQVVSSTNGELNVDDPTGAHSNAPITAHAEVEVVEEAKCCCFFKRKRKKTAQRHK

With `Cc1ccc(-c2ccc3c(ccc4sc5c(c43)NC[C@@H](C)NC5=O)n2)cn1`, the % of inhibition in assay [1] is 23%.

On to `Cc1cc([C@@H](C)Nc2ccccc2C(=O)O)c2nc(N3CCOCC3)cc(=O)n2c1` [AZD-6482], for which, in assay [2], the % of control was found to be 100%.

On to `CN(C)C/C=C/C(=O)Nc1ccc(C(=O)N2CCCC(Nc3ncc(Cl)c(-c4c[nH]c5ccccc45)n3)C2)cc1` (centres undefined), for which the % of control in assay [3] was 93%. Regarding `CCN(CC)CCCCNc1ncc2cc(-c3cc(OC)cc(OC)c3)c(NC(=O)NC(C)(C)C)nc2n1`, in assay [4], the % of control was 100%. Consider `CCC(=O)N1CCN(c2ccc(-n3c(=O)ccc4cnc5ccc(-c6cnc7ccccc7c6)cc5c43)cc2C(F)(F)F)CC1`, for which the % of control in [5] stood at 99%. Consider `Cc1cc(F)c(C(=O)Nc2cccc(-c3nncn3C(C)C)n2)cc1-n1cnc(C2CC2)c1`, for which, in [6], the % of control came to 95%. With `C=CC(=O)Nc1cc(-n2c(=O)ccc3cnc4ccc(-c5ccc(NS(C)(=O)=O)cc5)cc4c32)ccc1C`, the % of control in assay [7] came to 78%; in assay [8] (at 1 µM) it was 76%; in [8] (at 10 µM), 63%. On to `Cn1cc(-n2cnc3c(NCc4nc5cc(Cl)c(Cl)cc5[nH]4)nc(N4CCOCC4)nc32)cn1`, for which the % of control in [9] was -13.3%.

For the compound `CNC(=O)Nc1ccc(-c2nc(N3CC4CCC(C3)O4)c3cnn(C4CCC5(CC4)OCCO5)c3n2)cc1`, in assay [10], the % of control is 100%. `CC[C@@H]1[C@H](F)C(=O)N[C@@H]1COc1nccc2cc(C(N)=O)c(OC)cc12` [ZIMLOVISERTIB]: the % of inhibition in assay [11] turned out to be 0.578%; in assay [12], 2.6%. Regarding `COc1cc(N(C)c2ccnc3ccc(C(F)(F)F)cc23)cc(OC)c1OC`, the % binding in assay [13] came to 84%.

For the origin of these results see ChEMBL document CHEMBL5465560, “Selectivity Literature for EUbOPEN Chemogenomic Library” (2024).
